Here are results for one substance from patent US20100068747A1, “Generic Assay for Monitoring Endocytosis” (Evotec Technologies GmbH, priority 2005, published 2010).

In one experiment the test system is U2OS/ETAR-GFP cells. In words: Lectin labeling of fixed cells, U2OS/ETAR-GFP. Format: cell-based, human. The note with it: TRITC-lectin 10 nM and 20 nM. The procedure:
Lectin labeling of fixed cells was conducted as follows: To detach confluent cells in order to prepare experiments for internalization studies, cells were always treated with EDTA solution instead of trypsin solution. For all seeding, washing, and labeling steps in 96-well plates a working volume of 100 μl per well was assessed. Cells were seeded out into a 96-well plate at different concentrations. U2OS/ETAR-GFP suspensions were adjusted to yield 2*10^4 cells/well, both of the CHO cell lines must be at 2.5*10^4 cells/well. Cells became confluent after 24 hours of incubation. In the following, they were washed with phosphate buffered saline (PBS) and fixed with 3% PFA for 20 minutes at RT. Then, cells were washed again with PBS and incubated in 10 nM and 20 nM solutions of each TRITC-lectin candidate in PBS, respectively. Again, cells were washed with PBS to remove excess lectin, and wells were refilled with PBS for analysis. For specificity controls, lectin solutions were incubated for 30 minutes prior to the application with an excess of the monosaccharide that represents the respective glyco-epitope.
The following microscopy and image analysis techniques were employed. When utilizing the epifluorescence microscope magnifications were adjusted according to the purpose of observation, e.g. single cell vs. cell collective. Concerning the filters U-MNU was used for Hoechst, U-MSWB for GFP, and U-N41007 for TRITC detection. Hoechst images were taken at 50 ms exposure time, GFP images at 100 to 200 ms and TRITC images needed 500 to 1000 ms. Overlay images were assembled with AnalySIS and tuned in color intensity to obtain the desired color contrast. Images taken to compare two experimental conditions, e.g. control vs. stimulus, featured identical exposure parameters. If possible, well areas were chosen that reflect similar states of confluence. Utilizing the Opera confocal fluorescence imager, the instrument was calibrated running standard methods for skew cropping (spatial camera alignments) and camera intensity normalization.

The target of experiment [1] is T1, endothelin A receptor (ETAR) (Homo sapiens, UniProt P25101).
T1 construct: expressed in transfected cells; host or cells: CHO-K1 cell line clone #19, prepared in-house
T1 sequence (P25101 21-427): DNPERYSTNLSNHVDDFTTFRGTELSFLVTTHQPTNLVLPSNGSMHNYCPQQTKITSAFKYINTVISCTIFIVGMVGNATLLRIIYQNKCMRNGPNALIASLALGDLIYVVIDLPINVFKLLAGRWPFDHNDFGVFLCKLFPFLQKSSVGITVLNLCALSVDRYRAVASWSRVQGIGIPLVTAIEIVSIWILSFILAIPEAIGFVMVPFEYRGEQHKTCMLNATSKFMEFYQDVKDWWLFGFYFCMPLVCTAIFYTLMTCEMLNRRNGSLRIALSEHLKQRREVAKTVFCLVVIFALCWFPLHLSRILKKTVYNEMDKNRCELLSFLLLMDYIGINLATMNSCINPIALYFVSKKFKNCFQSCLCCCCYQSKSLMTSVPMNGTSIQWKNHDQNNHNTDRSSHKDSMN
Briefly: Lectin labeling of live cells with receptor targeted stimulation, CHO/ETAR. The experiment is classed as cell-based, Chinese hamster. The note with it: endothelin 1 stimulation. As to the method: With regard to lectin labeling of live cells with receptor target stimulation, lyophilized PAR-2 peptide was resuspended in 20 mM HEPES with 0.1% BSA at 4 mM. […] The live cell labeling protocol was applied as described above. Additionally, endothelin and PAR-2 agonist peptide were added to the assay medium employed after the lectin labeling step at concentrations of 40 nM and 100 μM, respectively. For controls, same amount of resuspension liquid without agonist was supplemented. Instantly, fluorescence signals were monitored.

For experiment [2], the system named is CHO/ETAR cell membrane protein. In words: Lectin blotting of ETAR membrane sample. The experiment is classed as binding. The procedure:
Membrane preparation was conducted as follows: Cells were cultured in five T175 flasks until confluency. Confluent cells were detached by applying 3 ml of EDTA solution onto the PBS washed cells. Following a 20-minute incubation at 37° C. and 5% CO2, cells were resuspended in 12 ml of starvation medium (standard medium without FCS), counted, and centrifuged in a Heraeus Megafuge 1.0R at 133 rcf for 4 minutes. All subsequent steps were carried out on ice and with ice cold solutions. After unification of all pellet fractions, hypotonic lysis buffer was added to the cells at a ratio of 1 ml per 5*10^7 cells. Additionally, protease inhibitor cocktail was added to 50 μl per 5*10^7 cells. Cells were homogenized with 30 strokes in a 5 ml potter on ice, centrifuged at 4° C. and 917 rcf for 10 minutes, and the supernatant was stored in an ultracentrifuge tube on ice. The pellet fraction was homogenized and centrifuged once again as described above. The supernatants of both procedures were unified and centrifuged at 4° C. and 100,000 rcf for 45 minutes in a Sorvall ultra-centrifuge. The supernatant of this centrifugation procedure was withdrawn and the pellet dissolved in 0.5 ml or 1.0 ml modified SDS PAGE loading buffer containing Tris-HCl, SDS, glycerol, but no β-mercapto-ethanol or dyes and stored in small aliquots of 50 μl at −20° C.
SDS-Page of membrane samples was conducted as follows: Discontinuous 12% polyacrylamide gels were prepared according to a standard protocol. Broad range marker and 25 μg membrane protein were mixed 1:1 with loading buffer and loaded five times onto a mini gel in alternating order. The gels were run at U=100 V for the first 20 minutes. Subsequently, voltage was increased to U=150 V. The run was aborted as soon as the pyronin G band reached the end of the gel. For coomassie staining, gels were put in coomassie staining solution on a shaker at low revolutions for 45 min. The staining solution was removed and the gel incubated with destaining solution for one to two hours, exchanging the solution several times until the desired contrast was obtained. […]

For the substance “succinylated Triticum vulgaris (wheat germ) agglutin [sWGA]”, in the experiment with U2OS/ETAR-GFP cells, the “Staining of U2OS/ETAR-GFP” value was “extensive fluorescence was observed at the cell surface”. Moreover, the “early spot formation, time after stimulation” value in experiment [1] lay within 20 to 30 min. Also, the “bands that stood out below 35 kDa” value in experiment [2] (ETAR sample) is “five”. Also, the “band at the same height as in the western (47 kDa, anti-ETAR)” value in experiment [2] (biotinylated lectin 5 μg/ml) is on record as “very faint band”.
